Results: ChEMBL document CHEMBL1201862, “PubChem BioAssay data set” (2004)
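How tested: cells in 96-well plates exposed to compound for 48 hours at five concentrations. GI50: concentration for 50% inhibition of growth.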 Active and inactive are the calls of the source. No stated cut-off is given here; in the data, active = GI50 up to about 1.1 µM and inactive = higher.

How the values were obtained:
Test in all cases: NCI anticancer screen, dose series, 48 h
CAKI-1 = tested on: CAKI-1
CCRF-CEM = tested on: CCRF-CEM
COLO 205 = tested on: COLO 205
HCC 2998 = tested on: HCC 2998
IGROV-1 = tested on: IGROV-1
MOLT-4 = tested on: MOLT-4
NCI-H522 = tested on: NCI-H522
OVCAR-3 = tested on: OVCAR-3
OVCAR-8 = tested on: OVCAR-8
SF-295 = tested on: SF-295
SK-MEL-28 = tested on: SK-MEL-28
U-251 = tested on: U-251
UACC-62 = tested on: UACC-62
UO-31 = tested on: UO-31
ACHN = tested on: ACHN
EKVX = tested on: EKVX
LOX IMVI = tested on: LOX IMVI
OVCAR-4 = tested on: OVCAR-4
SF-268 = tested on: SF-268
TK-10 = tested on: TK-10

Compound | GI50 (CAKI-1) | GI50 (CCRF-CEM) | GI50 (COLO 205) | GI50 (HCC 2998) | GI50 (IGROV-1) | GI50 (MOLT-4) | GI50 (NCI-H522) | GI50 (OVCAR-3) | GI50 (OVCAR-8) | GI50 (SF-295) | GI50 (SK-MEL-28) | GI50 (U-251) | GI50 (UACC-62) | GI50 (UO-31) | GI50 (ACHN) | GI50 (EKVX) | GI50 (LOX IMVI) | GI50 (OVCAR-4) | GI50 (SF-268) | GI50 (TK-10)
O=C1CCCC/C1=C1/SC(=N/c2ccccc2)/C(=N\c2ccccc2)N1c1ccccc1 | > 100 µM (inactive) | > 100 µM (inactive) | > 100 µM (inactive) | > 100 µM (inactive) | > 100 µM (inactive) | 34.2 µM (inactive) | > 100 µM (inactive) | 40.4 µM (inactive) | > 100 µM (inactive) | 86.3 µM (inactive) | > 100 µM (inactive) | > 100 µM (inactive) | 38.1 µM (inactive) | 91.4 µM (inactive) | – | – | – | – | – | –
O=C(NNC(=S)Nc1ccccc1)c1nsc2ccccc12 | – | 0.36 µM (active) | 39.7 µM (inactive) | 55 µM (inactive) | 31 µM (inactive) | 20.7 µM (inactive) | – | 10.3 µM (inactive) | 28.6 µM (inactive) | – | 34.6 µM (inactive) | 27.1 µM (inactive) | 26.2 µM (inactive) | 25.5 µM (inactive) | 39.7 µM (inactive) | 25.2 µM (inactive) | 23.7 µM (inactive) | 96.8 µM (inactive) | 30.1 µM (inactive) | 41.3 µM (inactive)
Cc1ccc(S(=O)(=O)NCCSS(=O)(=O)c2ccc(C)cc2)cc1 | – | 24.3 µM (inactive) | 56 µM (inactive) | 62.5 µM (inactive) | – | 26.8 µM (inactive) | 18.2 µM (inactive) | – | 37.9 µM (inactive) | 35.6 µM (inactive) | 31.7 µM (inactive) | 25.5 µM (inactive) | – | 28 µM (inactive) | 32.8 µM (inactive) | – | 33.4 µM (inactive) | > 100 µM (inactive) | 22.1 µM (inactive) | > 100 µM (inactive)
O=C(CCCn1cnc([N+](=O)[O-])n1)NCCn1ccnc1[N+](=O)[O-] | > 100 µM (inactive) | > 100 µM (inactive) | > 100 µM (inactive) | – | > 100 µM (inactive) | > 100 µM (inactive) | > 100 µM (inactive) | > 100 µM (inactive) | – | > 100 µM (inactive) | > 100 µM (inactive) | > 100 µM (inactive) | > 100 µM (inactive) | > 100 µM (inactive) | > 100 µM (inactive) | > 100 µM (inactive) | > 100 µM (inactive) | > 100 µM (inactive) | > 100 µM (inactive) | > 100 µM (inactive)
Cc1c(N2C(=O)/C(=C/c3ccc(N(CCC#N)CCC#N)cc3)N=C2c2ccccc2)c(=O)n(-c2ccccc2)n1C | > 100 µM (inactive) | 59.6 µM (inactive) | > 100 µM (inactive) | > 100 µM (inactive) | > 100 µM (inactive) | 75.7 µM (inactive) | – | > 100 µM (inactive) | > 100 µM (inactive) | > 100 µM (inactive) | > 100 µM (inactive) | > 100 µM (inactive) | > 100 µM (inactive) | > 100 µM (inactive) | – | > 100 µM (inactive) | > 100 µM (inactive) | > 100 µM (inactive) | > 100 µM (inactive) | –
COc1cccc(C2c3cc4c(cc3OC(NNS(=O)(=O)c3ccc(C)cc3)C2C)OCO4)c1O (configuration not stated) | 24.2 µM (inactive) | 10 µM (inactive) | 17.8 µM (inactive) | 31.1 µM (inactive) | 26.9 µM (inactive) | 10.7 µM (inactive) | 11.4 µM (inactive) | 18.9 µM (inactive) | 1.69 µM (inactive) | 20.8 µM (inactive) | 25.5 µM (inactive) | 22.3 µM (inactive) | 22 µM (inactive) | 18.5 µM (inactive) | 23.6 µM (inactive) | 20.2 µM (inactive) | 26.1 µM (inactive) | – | 41.9 µM (inactive) | 31.8 µM (inactive)
CCNC(=S)NNC(=O)c1nsc2ccccc12 | – | 31 µM (inactive) | > 100 µM (inactive) | > 100 µM (inactive) | > 100 µM (inactive) | 50.9 µM (inactive) | – | 49.1 µM (inactive) | > 100 µM (inactive) | – | > 100 µM (inactive) | 94.2 µM (inactive) | 63.8 µM (inactive) | 52.8 µM (inactive) | > 100 µM (inactive) | 18.7 µM (inactive) | 64.9 µM (inactive) | > 100 µM (inactive) | 81.5 µM (inactive) | > 100 µM (inactive)
Cc1nc2ccccc2c(=O)n1/N=C(\N=N\c1ccc(Cl)cc1)c1cccc(-c2ccco2)c1 | 25.5 µM (inactive) | 24.6 µM (inactive) | 31.8 µM (inactive) | – | 31.3 µM (inactive) | 22.4 µM (inactive) | 17.7 µM (inactive) | – | 33.1 µM (inactive) | 48.5 µM (inactive) | 16.8 µM (inactive) | 27.5 µM (inactive) | 22.4 µM (inactive) | 14.1 µM (inactive) | 30.5 µM (inactive) | 51.8 µM (inactive) | 28.9 µM (inactive) | – | 19.7 µM (inactive) | 51.5 µM (inactive)
CS(C)(=O)=Nn1c(=O)n2n(c1=O)C1c3ccccc3C2c2ccccc21 | > 100 µM (inactive) | > 100 µM (inactive) | > 100 µM (inactive) | – | > 100 µM (inactive) | > 100 µM (inactive) | > 100 µM (inactive) | > 100 µM (inactive) | > 100 µM (inactive) | > 100 µM (inactive) | > 100 µM (inactive) | > 100 µM (inactive) | > 100 µM (inactive) | > 100 µM (inactive) | > 100 µM (inactive) | > 100 µM (inactive) | > 100 µM (inactive) | – | – | > 100 µM (inactive)
CCc1nnc2sc(-c3ccc(-c4ccc(Cl)cc4Cl)o3)nn12 | 96.6 µM (inactive) | 37.3 µM (inactive) | 23.1 µM (inactive) | – | > 100 µM (inactive) | 44.1 µM (inactive) | 52.4 µM (inactive) | 40.6 µM (inactive) | 71 µM (inactive) | 43.1 µM (inactive) | > 100 µM (inactive) | 37.3 µM (inactive) | – | 67.8 µM (inactive) | 82 µM (inactive) | 54.8 µM (inactive) | 74.1 µM (inactive) | 84.7 µM (inactive) | 61.2 µM (inactive) | 43.7 µM (inactive)
COc1cc([C@@H]2c3cc4c(cc3[C@H](O)[C@H]3COC(=O)[C@H]23)OCO4)cc(OC)c1OC [PODOFILOX] | 0.0897 µM (active) | < 0.005 µM (active) | < 0.005 µM (active) | – | – | < 0.005 µM (active) | – | – | < 0.005 µM (active) | < 0.005 µM (active) | < 0.005 µM (active) | – | < 0.005 µM (active) | – | < 0.005 µM (active) | – | < 0.005 µM (active) | – | < 0.005 µM (active) | –
N/C(S)=N/N=C/c1cc(CN2CCOCC2)c(N)cn1 | 45.7 µM (inactive) | 40.1 µM (inactive) | 26.8 µM (inactive) | – | 50.5 µM (inactive) | 48.1 µM (inactive) | – | 27.7 µM (inactive) | 18.5 µM (inactive) | 36 µM (inactive) | – | 56.8 µM (inactive) | 42.4 µM (inactive) | 28.2 µM (inactive) | 14.1 µM (inactive) | 63.1 µM (inactive) | 29.9 µM (inactive) | – | 23.6 µM (inactive) | 43.4 µM (inactive)
Oc1ccc(Cl)cc1C1=NC(/N=C\c2ccccc2)=NC(c2ccccc2)C1 (configuration not stated) | 4.3 µM (inactive) | > 100 µM (inactive) | > 100 µM (inactive) | – | 7.01 µM (inactive) | > 100 µM (inactive) | 12.1 µM (inactive) | 11.4 µM (inactive) | 20 µM (inactive) | > 100 µM (inactive) | > 100 µM (inactive) | 30.1 µM (inactive) | > 100 µM (inactive) | 10.5 µM (inactive) | – | > 100 µM (inactive) | – | – | 7.19 µM (inactive) | > 100 µM (inactive)
C=CCOC1OC(CS(=O)(=O)O)C(O)C(O)C1O (configuration not stated) | > 100 µM (inactive) | > 10 µM (inactive) | > 100 µM (inactive) | > 100 µM (inactive) | > 100 µM (inactive) | > 100 µM (inactive) | – | > 100 µM (inactive) | > 100 µM (inactive) | > 100 µM (inactive) | > 100 µM (inactive) | > 100 µM (inactive) | > 100 µM (inactive) | > 100 µM (inactive) | – | – | > 100 µM (inactive) | > 100 µM (inactive) | – | > 100 µM (inactive)
CSC1SCC2C(=O)N(C)C(C(C)C)C(=O)OCC(NC(=O)c3cnc4ccccc4n3)C(=O)NC(C)C(=O)N(C)C1C(=O)N(C)C(C(C)C)C(=O)OCC(NC(=O)c1cnc3ccccc3n1)C(=O)NC(C)C(=O)N2C (configuration not stated) | 0.0075 µM (active) | 0.00925 µM (active) | 0.0075 µM (active) | 0.0075 µM (active) | 0.0075 µM (active) | 0.0075 µM (active) | – | 0.0075 µM (active) | 0.0075 µM (active) | 0.0075 µM (active) | – | 0.0075 µM (active) | – | 0.0083 µM (active) | – | 0.0075 µM (active) | – | 0.0075 µM (active) | 0.0075 µM (active) | 0.00152 µM (active)
COc1ccc(/N=C\c2ccc(N(CCC#N)S(=O)(=O)c3ccccc3)cc2C)cc1 | 35.5 µM (inactive) | 30.2 µM (inactive) | 27.2 µM (inactive) | 32 µM (inactive) | 64.1 µM (inactive) | 27.4 µM (inactive) | > 100 µM (inactive) | 53.7 µM (inactive) | > 100 µM (inactive) | 63.2 µM (inactive) | 39.9 µM (inactive) | > 100 µM (inactive) | 8.99 µM (inactive) | 23.3 µM (inactive) | 15.6 µM (inactive) | > 100 µM (inactive) | – | 74.6 µM (inactive) | 3.58 µM (inactive) | 22.9 µM (inactive)
